The target in this test is Hepatocyte growth factor receptor (Homo sapiens, UniProt P08581).
Chain of Hepatocyte growth factor receptor (P08581 whole entry): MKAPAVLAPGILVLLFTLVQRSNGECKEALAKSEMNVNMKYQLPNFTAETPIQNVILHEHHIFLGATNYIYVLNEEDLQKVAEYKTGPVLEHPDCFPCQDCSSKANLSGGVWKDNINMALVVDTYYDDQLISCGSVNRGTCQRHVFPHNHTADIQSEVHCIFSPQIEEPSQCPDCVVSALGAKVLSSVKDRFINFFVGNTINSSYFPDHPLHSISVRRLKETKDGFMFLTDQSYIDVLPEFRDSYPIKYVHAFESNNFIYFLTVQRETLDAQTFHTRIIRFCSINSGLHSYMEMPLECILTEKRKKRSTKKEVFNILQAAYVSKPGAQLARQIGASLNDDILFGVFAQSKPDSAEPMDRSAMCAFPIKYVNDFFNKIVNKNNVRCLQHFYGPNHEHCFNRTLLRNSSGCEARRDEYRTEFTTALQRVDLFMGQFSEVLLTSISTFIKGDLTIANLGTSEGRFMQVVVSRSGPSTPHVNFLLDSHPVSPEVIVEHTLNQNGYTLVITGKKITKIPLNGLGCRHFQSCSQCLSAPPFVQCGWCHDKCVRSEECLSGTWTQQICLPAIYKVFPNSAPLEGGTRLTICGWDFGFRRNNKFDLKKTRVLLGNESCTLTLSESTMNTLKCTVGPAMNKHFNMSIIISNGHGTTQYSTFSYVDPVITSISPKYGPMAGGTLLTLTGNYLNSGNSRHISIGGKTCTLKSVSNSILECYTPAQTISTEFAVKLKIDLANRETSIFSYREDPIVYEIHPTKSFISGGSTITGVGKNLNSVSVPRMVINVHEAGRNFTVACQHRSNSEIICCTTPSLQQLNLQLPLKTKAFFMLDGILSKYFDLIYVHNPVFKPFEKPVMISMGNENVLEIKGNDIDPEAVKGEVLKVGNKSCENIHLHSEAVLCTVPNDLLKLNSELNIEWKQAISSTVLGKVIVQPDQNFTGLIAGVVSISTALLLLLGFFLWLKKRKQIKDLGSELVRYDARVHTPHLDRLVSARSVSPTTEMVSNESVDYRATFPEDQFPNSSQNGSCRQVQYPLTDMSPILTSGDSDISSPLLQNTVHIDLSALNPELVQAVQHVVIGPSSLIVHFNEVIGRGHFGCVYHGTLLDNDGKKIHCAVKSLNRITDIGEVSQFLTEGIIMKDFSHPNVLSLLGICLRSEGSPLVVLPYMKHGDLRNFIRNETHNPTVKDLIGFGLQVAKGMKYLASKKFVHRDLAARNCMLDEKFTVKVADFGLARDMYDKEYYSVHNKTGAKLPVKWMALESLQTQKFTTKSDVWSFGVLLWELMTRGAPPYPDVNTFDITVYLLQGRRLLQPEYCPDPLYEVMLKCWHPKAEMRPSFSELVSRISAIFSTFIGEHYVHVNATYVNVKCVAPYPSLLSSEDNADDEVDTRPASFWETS
Description: Inhibition of human c-MET
Turning to `Cn1cc(CC(=O)N/N=C2\C(=O)Nc3ccc(C(=O)N4CCCC4CN4CCCC4)c(Cl)c32)ccc1=O` (stereo unspecified), the IC50 is 4.15 µM. This counts as single-digit micromolar.

Consider `O=C(Cc1ccccc1)NC(=S)Nc1ccc(Oc2cccc3cc(-c4ncccn4)sc23)c(F)c1`, for which the IC50 amounted to 0.181 µM.

`O=C(Cc1ccccc1)NC(=S)Nc1ccc(Oc2ccnc3cc(C(=O)C4CCCO4)sc23)c(F)c1` (stereo unspecified) yielded an IC50 of 0.13 µM.

Molecule `CN(C)CCNC(=O)c1cc(Br)c2c(c1)NC(=O)/C2=N\NC(=O)Cc1ccc2c(c1)CCO2` returned an IC50 of 0.1 µM.

In turn, `CN1CCN(c2cnc3cccc(OCc4cccc([N+](=O)[O-])c4)c3c2)CC1` came in with an IC50 of 0.057 µM.

Consider `COc1cc2nccc(Oc3ccc(NC(=O)NCCc4c(Cl)cccc4Cl)nc3)c2cc1OC`, for which the IC50 worked out at 5.2 µM. Compared with the last molecule, the IC50 is about 91-fold higher.

On to `O=C(Nc1ccc(Oc2ccnc3ccsc23)c(F)c1)NC1CC1c1ccccc1` (stereo unspecified), for which the IC50 worked out at 6.6 µM.

In the case of `CN(CCN1CCN(N)CC1)Cc1ccc(-c2cc3nccc(Oc4ccc(NC(=O)N5CCN(c6ccccc6)C5=O)cc4F)c3s2)cc1`, the IC50 is 0.028 µM. Against the preceding molecule, the IC50 is about 240-fold lower.

Molecule `COc1cc2c(Oc3ccc(-c4cnc(Nc5ccc(F)cc5)n(C)c4=O)cc3F)ccnc2cc1OCCCN1CCOCC1` returned a concentration for half-maximal inhibition (IC50) of 0.0049 µM.

`O=C(Cc1ccc2c(c1)CCO2)N/N=C1\C(=O)Nc2cc(C(=O)NCCCO)cc(Br)c21`: inhibition was half-maximal at 0.065 µM (IC50).

Take `CC(C)(C)OC(=O)c1cnc2ccn(S(=O)(=O)c3ccccc3[N+](=O)[O-])c2c1`: it took 0.02 µM to reach half-maximal inhibition (IC50).

Consider `Cc1cccc2c1NC(=O)/C2=N\NC(=O)Cc1ccc(O)c(Cl)c1`, for which the IC50 turned out to be 0.02 µM.

`COc1cc2c(Oc3ccc(-c4cnc(Cc5ccccc5)n(C)c4=O)cc3F)ccnc2cc1OCCCN1CCOCC1` had an IC50 of 0.017 µM.

As to `CCn1ccnc1-c1cc2cccc(Oc3ccc(NC(=S)NC(=O)Cc4ccccc4)cc3F)c2s1`, 0.108 µM corresponded to half-maximal inhibition (IC50).

As for `COc1cc2c(Oc3ccc(-c4cnc(Cc5ccccc5)n(C)c4=O)cc3F)ccnc2cc1OCCCN1CCN(C)CC1`, the IC50 came out at 0.0092 µM.

With `Cn1ccnc1-c1cc2nccc(Oc3ccc(NC(=O)NC(=O)c4c(F)cccc4F)nc3)c2s1`, the midpoint of inhibition, the IC50, lay at 4.4 µM.

The molecule `CCN1CCN(CCCOc2cc3nccc(Oc4ccc(-c5cnc(Cc6ccccc6)n(C)c5=O)cc4F)c3cc2OC)CC1` returned an IC50 of 0.021 µM.

For the molecule `CC(C(=O)NN=C1C(=O)Nc2ccc(C(=O)N3CCCC3CN3CCCC3)c(Cl)c21)c1ccc(F)cc1` (stereo unspecified), the IC50 was found to be 0.43 µM.

Regarding `Cc1cc(CCN2CCCC2)c(C)c2c1N(CCN1CCCCC1)C(=O)/C2=N\NC(=O)C(C)c1ccc(O)cc1` (stereo unspecified), the IC50 was determined as 0.2 µM. Compared with the last molecule, the IC50 is about 2.1-fold lower.

As to `COc1cc2nccc(Oc3ccc(NC(=O)NCC(=O)N(C)C)nc3)c2cc1OC`, the IC50 was found to be 9.64 µM. This IC50 lies about 48-fold higher than the previous one.

The molecule `O=C(Cc1ccc2c(c1)CCO2)NN=C1C(=O)Nc2cc(C(=O)NCN3CCOCC3)cc(Br)c21` yielded an IC50 of 0.0007 µM.

Consider `O=C(Cc1ccccc1)NC(=O)Nc1ccc(Oc2ccnc3ccsc23)cc1F`, for which the IC50 turned out to be 0.3 µM.

`O=C(Nc1ccc(Oc2ccnc3ccsc23)cc1)NC1CC1c1ccccc1` (stereo unspecified) came in with an IC50 of 10 µM. Compared with the last molecule, the IC50 is about 33-fold higher.

In turn, `Cn1cnc(-c2cc3cccc(Oc4ccc(NC(=S)NC(=O)Cc5ccccc5)cc4F)c3s2)c1` yielded an IC50 of 0.029 µM.

For the molecule `COc1cc2nccc(Oc3ccc(-c4cnc(C(N)c5ccccc5)n(C)c4=O)cc3F)c2cc1OC` (stereo unspecified), inhibition was half-maximal at 0.072 µM (IC50).

Consider `COc1cc2nccc(Oc3ccc(-c4cnc(Nc5cccc(F)c5)n(C)c4=O)cc3F)c2cc1OC`, for which the IC50 is 0.038 µM. Against the preceding molecule, the IC50 is about 1.9-fold lower.

`COc1ccc2c(Oc3ccc(NC(=O)c4c(C)n(CC(C)(C)O)n(-c5ccccc5)c4=O)cc3F)ccnc2c1` had a half-inhibitory concentration (IC50) of 0.0027 µM.

Consider `Cc1[nH]c(/C=C2\C(=O)Nc3ccc(S(=O)(=O)N4CCc5ccccc54)cc32)c(C)c1C(=O)N1CCN(C)CC1`, for which the IC50 is 0.04 µM. Against the preceding molecule, the IC50 is about 15-fold higher.

Regarding `COc1cc2ncnc(Oc3ccc(NC(=O)NC(=O)c4c(F)cccc4F)nc3)c2cc1OC`, the midpoint of inhibition, the IC50, lay at 0.43 µM. This IC50 is about 11-fold higher than that of the molecule before.

In the case of `COc1cc2c(Oc3ccc(-c4cnc(Cc5ccc(F)cc5)n(C)c4=O)cc3F)ccnc2cc1OCCCN1CCOCC1`, the IC50 worked out at 0.017 µM. Compared with the last molecule, the IC50 is about 25-fold lower.

Regarding `Cc1[nH]c(/C=C2\C(=O)Nc3ccc(S(=O)(=O)N(C)c4cccc(Cl)c4)cc32)c(C)c1CCCN1CCOCC1`, the IC50 is 0.17 µM. This IC50 is about 10-fold higher than that of the molecule before.

Broadly, the IC50 is the point on the concentration scale where inhibition reaches its midpoint. Read a high IC50 as lower potency.

For the origin of these results see ChEMBL document CHEMBL1821609, “Combined SVM-based and docking-based virtual screening for retrieving novel inhibitors of c-Met” (Eur J Med Chem, 2011).
